The values below come from PMC2033785, “High-affinity binding sites for gastrin-releasing peptide on human colorectal cancer tissue but not uninvolved mucosa” (British Journal of Cancer, 1995).

No end group written: not given here. Where only a bound is given, the exact number is not on record here.

Assay [1] relates to matched mucosa. On the set-up: method as in Radulovic et al., 1992. The note with it: ref Radulovic et al., 1992; cited from earlier work.
In assay [2] the test system is mouse colon cancer cell line MC26. Further details: method as in Narayan et al., 1990. The following applies: [3H]thymidine incorporation and MTT assays; ref Narayan et al., 1990; cited from earlier work.
In assay [3] the test system is bombesin binding sites on human colorectal cancer tissue (GRP-preferring subtype). Put plainly: Radioligand displacement binding on human colorectal cancer membranes. The note with it: for Radioligand displacement achieved over the concentration range: [125I]Tyr4-BBS; for Radioligand displacement achieved over the concentration range / Relative affinity for the binding site (GRP, BBS >> NMB): five binding site-positive tumours; for Relative affinity for the binding site (GRP, BBS >> NMB): displacement of [125I]Tyr4-bombesin.

For assay [4], the system named is human colorectal cancers. On the set-up: method as in Radulovic et al., 1992. The following applies: ref Radulovic et al., 1992; cited from earlier work.
[5] abbreviates: competitor 1 x 10-11 to 1 x 10^-6 M.

As to bombesin [BBS], the “Matched mucosa binding site positive” value in assay [1] is on record as “none of the matched mucosa were binding site positive”. Also, the Effect on growth result in assay [2] is listed as “stimulated growth”. Besides, the “Radioligand displacement achieved over the concentration range” value in assay [3] (setting [5]) was “Full radioligand displacement was achieved”. Also, in assay [3], the “Relative affinity for the binding site (GRP, BBS >> NMB)” value (“Relative affinity for the binding site” below) was “GRP, BBS >> NMB”. Also, in assay [4], the “Percentage of human colorectal cancers expressing bombesin binding sites” value is on record as 40%.

As for “gastrin-releasing peptide (VPLPAGGGTVLTKMYPRGNHWAVGHLM; ends and bridges not checked; UniProt P07492 24-50, looked up) [GRP, mammalian bombesin-like peptide (Bachem)]”, the “Radioligand displacement achieved over the concentration range” value in assay [3] (setting [5]) is “Full radioligand displacement was achieved”. In addition, in assay [3], the “Relative affinity for the binding site” value is listed as “GRP, BBS >> NMB”.

Take neuromedin B [NMB]: the “Relative affinity for the binding site” value in assay [3] was “GRP, BBS >> NMB”. Also, the “IC50 for displacement of [125I]Tyr4-BBS” value in assay [3] (membrane preparations, approximately 200 pM radioligand, competitor 1 x 10-11 to 1 x 10^-6 M, six tubes per point, mean (± s.e.m.) of the five binding site-positive cancers) is recorded as “> lOOO”. The “50% displacement of specific binding: number of tumours in which achieved” value in assay [3] (of the five binding site-positive tumours, competitor 1 x 10-11 to 1 x 10^-6 M) is recorded as “only achieved in two of the five binding site-positive tumours”.
